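96-well plates; 48 h exposure; 5 concentrations. Endpoints by linear interpolation between flanking doses. Not reached: highest tested concentration assigned. GI50 = concentration required for 50% inhibition of growth.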 Activity calls are given as the source filed them. Cut-off read from the data, not from the text of the source: active = GI50 up to about 1.1 µM and inactive = higher.
Tests used:
Assay in all cases: growth of human tumour cells (NCI), 48 h
Hs-578T = tested on: Hs-578T
EKVX = tested on: EKVX
MDA-MB-435 = tested on: MDA-MB-435
UACC-257 = tested on: UACC-257
HT-29 = tested on: HT-29
OVCAR-3 = tested on: OVCAR-3
SW-620 = tested on: SW-620
CCRF-CEM = tested on: CCRF-CEM
SN12C = tested on: SN12C
NCI-H226 = tested on: NCI-H226
PC-3 = tested on: PC-3
SNB-75 = tested on: SNB-75
T47D = tested on: T47D
HOP-62 = tested on: HOP-62
SF-268 = tested on: SF-268
MDA-N = tested on: MDA-N
Malme-3M = tested on: Malme-3M
HCT-116 = tested on: HCT-116
SK-MEL-2 = tested on: SK-MEL-2
SK-OV-3 = tested on: SK-OV-3
BT-549 = tested on: BT-549
786-0 = tested on: 786-0
NCI-H522 = tested on: NCI-H522
COLO 205 = tested on: COLO 205
SK-MEL-28 = tested on: SK-MEL-28
A549 = tested on: A549
RPMI-8226 = tested on: RPMI-8226
M14 = tested on: M14
MOLT-4 = tested on: MOLT-4
TK-10 = tested on: TK-10
NCI-H23 = tested on: NCI-H23
RXF 393 = tested on: RXF 393
MDA-MB-231 = tested on: MDA-MB-231
OVCAR-4 = tested on: OVCAR-4
OVCAR-8 = tested on: OVCAR-8
KM12 = tested on: KM12
IGROV-1 = tested on: IGROV-1
SR = tested on: SR
SNB-19 = tested on: SNB-19
CAKI-1 = tested on: CAKI-1
K562 = tested on: K562
OVCAR-5 = tested on: OVCAR-5
SF-295 = tested on: SF-295
ACHN = tested on: ACHN
LOX IMVI = tested on: LOX IMVI
DU-145 = tested on: DU-145
SK-MEL-5 = tested on: SK-MEL-5
HCT-15 = tested on: HCT-15
UO-31 = tested on: UO-31
UACC-62 = tested on: UACC-62
NCI/ADR-RES = tested on: NCI/ADR-RES
MCF7 = tested on: MCF7
U-251 = tested on: U-251
A498 = tested on: A498
SF-539 = tested on: SF-539
HOP-92 = tested on: HOP-92
HCC 2998 = tested on: HCC 2998
HL-60 = tested on: HL-60
NCI-H460 = tested on: NCI-H460

SMILES: O=C(O)C1C2C=CC(O2)C1C(=O)Nc1ccccc1 (configuration not stated)
- GI50 (Hs-578T): > 100 µM (inactive)
- GI50 (EKVX): > 100 µM (inactive)
- GI50 (MDA-MB-435): > 100 µM (inactive)
- GI50 (UACC-257): > 100 µM (inactive)
- GI50 (HT-29): > 100 µM (inactive)
- GI50 (OVCAR-3): > 100 µM (inactive)
- GI50 (SW-620): > 100 µM (inactive)
- GI50 (CCRF-CEM): > 100 µM (inactive)
- GI50 (SN12C): > 100 µM (inactive)
- GI50 (NCI-H226): > 100 µM (inactive)
- GI50 (PC-3): > 100 µM (inactive)
- GI50 (SNB-75): > 100 µM (inactive)
- GI50 (T47D): > 100 µM (inactive)
- GI50 (HOP-62): > 100 µM (inactive)
- GI50 (SF-268): > 100 µM (inactive)
- GI50 (MDA-N): > 100 µM (inactive)
- GI50 (Malme-3M): > 100 µM (inactive)
- GI50 (HCT-116): > 100 µM (inactive)
- GI50 (SK-MEL-2): > 100 µM (inactive)
- GI50 (SK-OV-3): > 100 µM (inactive)
- GI50 (BT-549): > 100 µM (inactive)
- GI50 (786-0): > 100 µM (inactive)
- GI50 (NCI-H522): > 100 µM (inactive)
- GI50 (COLO 205): > 100 µM (inactive)
- GI50 (SK-MEL-28): > 100 µM (inactive)
- GI50 (A549): > 100 µM (inactive)
- GI50 (RPMI-8226): > 100 µM (inactive)
- GI50 (M14): > 100 µM (inactive)
- GI50 (MOLT-4): > 100 µM (inactive)
- GI50 (TK-10): > 100 µM (inactive)
- GI50 (NCI-H23): > 100 µM (inactive)
- GI50 (RXF 393): > 100 µM (inactive)
- GI50 (MDA-MB-231): > 100 µM (inactive)
- GI50 (OVCAR-4): > 100 µM (inactive)
- GI50 (OVCAR-8): > 100 µM (inactive)
- GI50 (KM12): > 100 µM (inactive)
- GI50 (IGROV-1): > 100 µM (inactive)
- GI50 (SR): > 100 µM (inactive)
- GI50 (SNB-19): > 100 µM (inactive)
- GI50 (CAKI-1): > 100 µM (inactive)
- GI50 (K562): > 100 µM (inactive)
- GI50 (OVCAR-5): > 100 µM (inactive)
- GI50 (SF-295): > 100 µM (inactive)
- GI50 (ACHN): > 100 µM (inactive)
- GI50 (LOX IMVI): > 100 µM (inactive)
- GI50 (DU-145): > 100 µM (inactive)
- GI50 (SK-MEL-5): > 100 µM (inactive)
- GI50 (HCT-15): > 100 µM
- GI50 (UO-31): > 100 µM (inactive)
- GI50 (UACC-62): > 100 µM (inactive)
- GI50 (NCI/ADR-RES): > 100 µM (inactive)
- GI50 (MCF7): > 100 µM (inactive)
- GI50 (U-251): > 100 µM (inactive)
- GI50 (A498): > 100 µM (inactive)

SMILES: C=CC[C@H]1[C@H](O[Si](C)(C)C(C)(C)C)C=CC(=O)[C@@H]1CC(=O)N(Cc1ccccc1)Cc1ccccc1
- GI50 (Hs-578T): 6.27 µM (inactive)
- GI50 (EKVX): 12.9 µM (inactive)
- GI50 (MDA-MB-435): 20.9 µM (inactive)
- GI50 (UACC-257): 11.5 µM (inactive)
- GI50 (HT-29): 6.35 µM (inactive)
- GI50 (OVCAR-3): 15.1 µM (inactive)
- GI50 (SW-620): 26.7 µM (inactive)
- GI50 (CCRF-CEM): 7.85 µM (inactive)
- GI50 (SN12C): 18.8 µM (inactive)
- GI50 (NCI-H226): 11.7 µM (inactive)
- GI50 (PC-3): 10.4 µM (inactive)
- GI50 (T47D): 3.3 µM (inactive)
- GI50 (HOP-62): 25.6 µM (inactive)
- GI50 (SF-268): 6.55 µM (inactive)
- GI50 (MDA-N): 16.4 µM (inactive)
- GI50 (HCT-116): 8.2 µM (inactive)
- GI50 (SK-MEL-2): 14.8 µM (inactive)
- GI50 (SK-OV-3): 26.1 µM (inactive)
- GI50 (BT-549): 16.9 µM (inactive)
- GI50 (786-0): 17.5 µM (inactive)
- GI50 (SF-539): 25.1 µM (inactive)
- GI50 (NCI-H522): 5.01 µM (inactive)
- GI50 (COLO 205): 12.9 µM (inactive)
- GI50 (SK-MEL-28): 49.5 µM (inactive)
- GI50 (A549): 20.5 µM (inactive)
- GI50 (RPMI-8226): 9.89 µM (inactive)
- GI50 (M14): 18.1 µM (inactive)
- GI50 (HOP-92): 2.09 µM (inactive)
- GI50 (MOLT-4): 9.93 µM (inactive)
- GI50 (TK-10): 19.2 µM (inactive)
- GI50 (NCI-H23): 5.46 µM (inactive)
- GI50 (RXF 393): 6.15 µM (inactive)
- GI50 (MDA-MB-231): 14.2 µM (inactive)
- GI50 (OVCAR-4): 17.5 µM (inactive)
- GI50 (HCC 2998): 20.3 µM (inactive)
- GI50 (OVCAR-8): 16.1 µM (inactive)
- GI50 (KM12): 15.9 µM (inactive)
- GI50 (IGROV-1): 20.8 µM (inactive)
- GI50 (SR): 9.29 µM (inactive)
- GI50 (SNB-19): 29.6 µM (inactive)
- GI50 (CAKI-1): 12.4 µM (inactive)
- GI50 (K562): 4.69 µM (inactive)
- GI50 (OVCAR-5): 32.4 µM (inactive)
- GI50 (SF-295): 15.1 µM (inactive)
- GI50 (ACHN): 15 µM (inactive)
- GI50 (HL-60): 5.48 µM (inactive)
- GI50 (LOX IMVI): 12.5 µM (inactive)
- GI50 (DU-145): 27.2 µM (inactive)
- GI50 (SK-MEL-5): 7.83 µM (inactive)
- GI50 (NCI-H460): 20.6 µM (inactive)
- GI50 (HCT-15): 9.73 µM
- GI50 (UO-31): 11.7 µM (inactive)
- GI50 (UACC-62): 13.5 µM (inactive)
- GI50 (NCI/ADR-RES): 10.8 µM (inactive)
- GI50 (MCF7): 19.5 µM (inactive)
- GI50 (U-251): 19.3 µM (inactive)
- GI50 (A498): 57.5 µM (inactive)

SMILES: COC(=O)C1C(C(=O)OC)C1(Br)CBr (configuration not stated)
- GI50 (Hs-578T): 89.1 µM (inactive)
- GI50 (EKVX): 25.1 µM (inactive)
- GI50 (MDA-MB-435): 60.5 µM (inactive)
- GI50 (UACC-257): > 100 µM (inactive)
- GI50 (HT-29): 24 µM (inactive)
- GI50 (OVCAR-3): 89.3 µM (inactive)
- GI50 (SW-620): 31.7 µM (inactive)
- GI50 (SN12C): 27.5 µM (inactive)
- GI50 (NCI-H226): > 100 µM (inactive)
- GI50 (PC-3): > 100 µM (inactive)
- GI50 (SNB-75): > 100 µM (inactive)
- GI50 (T47D): 23.2 µM (inactive)
- GI50 (HOP-62): > 100 µM (inactive)
- GI50 (SF-268): 28.9 µM (inactive)
- GI50 (MDA-N): 63.7 µM (inactive)
- GI50 (HCT-116): 39.3 µM (inactive)
- GI50 (SK-MEL-2): > 100 µM (inactive)
- GI50 (SK-OV-3): > 100 µM (inactive)
- GI50 (BT-549): 33.1 µM (inactive)
- GI50 (786-0): 20.4 µM (inactive)
- GI50 (SF-539): 40.6 µM (inactive)
- GI50 (NCI-H522): 3.54 µM (inactive)
- GI50 (COLO 205): 20 µM (inactive)
- GI50 (SK-MEL-28): 35.4 µM (inactive)
- GI50 (A549): > 100 µM (inactive)
- GI50 (RPMI-8226): 16.5 µM (inactive)
- GI50 (M14): 31.5 µM (inactive)
- GI50 (HOP-92): 22.9 µM (inactive)
- GI50 (MOLT-4): 6.15 µM (inactive)
- GI50 (TK-10): > 100 µM (inactive)
- GI50 (NCI-H23): 70.1 µM (inactive)
- GI50 (RXF 393): 19.1 µM (inactive)
- GI50 (MDA-MB-231): 87.5 µM (inactive)
- GI50 (OVCAR-4): 39.7 µM (inactive)
- GI50 (HCC 2998): > 100 µM (inactive)
- GI50 (OVCAR-8): 32.5 µM (inactive)
- GI50 (KM12): > 100 µM (inactive)
- GI50 (IGROV-1): 30.5 µM (inactive)
- GI50 (SR): 17.9 µM (inactive)
- GI50 (SNB-19): > 100 µM (inactive)
- GI50 (CAKI-1): 17.8 µM (inactive)
- GI50 (OVCAR-5): 25.4 µM (inactive)
- GI50 (SF-295): > 100 µM (inactive)
- GI50 (ACHN): 25.8 µM (inactive)
- GI50 (HL-60): 43.2 µM (inactive)
- GI50 (LOX IMVI): 20.9 µM (inactive)
- GI50 (DU-145): > 100 µM (inactive)
- GI50 (SK-MEL-5): > 99.5 µM (inactive)
- GI50 (NCI-H460): > 100 µM (inactive)
- GI50 (HCT-15): 17.9 µM
- GI50 (UO-31): 18.4 µM (inactive)
- GI50 (UACC-62): > 100 µM (inactive)
- GI50 (NCI/ADR-RES): > 100 µM (inactive)
- GI50 (MCF7): 46.1 µM (inactive)
- GI50 (U-251): > 100 µM (inactive)
- GI50 (A498): > 100 µM (inactive)

— ChEMBL document CHEMBL1201862, “PubChem BioAssay data set” (2004)
